PMC6464118 (European journal of medicinal chemistry, 2019)

Tests used:
[1] = tested on: HIV-1 NL4-3 Nanoluc-sec virus; type: cell-based; details: for TI: CC50/EC50: CC50 (MT4) / EC50 (NL4-3); for anti-HIV activity in words: HIV-1 NL4-3 replication in MT4 cells
[2] = tested on: bevirimat-resistant HIV viruses NL4-3-V370A; assay: Activity against bevirimat-resistant HIV virus NL4-3-V370A; type: cell-based

Compound | TI: CC50/EC50 [1] | anti-HIV activity in words [1] | other results
CC(=O)O[C@H]1[C@@H](OC(C)=O)[C@@]2(C)[C@@H]3CC[C@H]4C(C)(C)[C@@H](O[C@@H]5OC[C@@H](O)[C@H](O)[C@H]5O)CC[C@@]45C[C@@]35CC[C@@]23CO[C@@]2(C(C)(C)O)CC[C@](C)(O2)[C@@H]13 [Compound 1, beesioside I] | > 17.2 |  | 
CC1(C)[C@@H](O[C@@H]2OC[C@@H](O)[C@H](O)[C@H]2O)CC[C@]23C[C@]24CC[C@]25CO[C@@]6(C(C)(C)O)CC[C@](C)(O6)[C@H]2[C@@H](O)[C@@H](O)[C@@]5(C)[C@@H]4CC[C@@H]13 [Compound 1a, (20S,24S)-18,24;20,24-Diepoxy-9,19-cyclolanostane-3β, 15β, 16β,25-tetraol 3-O-β-D-xylopyrano-side] | > 5.2 | less potent | 
CC(=O)O[C@H]1[C@@H](O)[C@@]2(C)[C@@H]3CC[C@H]4C(C)(C)[C@@H](O[C@@H]5OC[C@@H](O)[C@H](O)[C@H]5O)CC[C@@]45C[C@@]35CC[C@@]23CO[C@@]2(C(C)(C)O)CC[C@](C)(O2)[C@@H]13 [Compound 2, beesioside K] | > 8.6 |  | 
CC(=O)O[C@H]1[C@H](O)[C@H]([C@]2(C)CC[C@@H](C(C)(C)O)O2)[C@@]2(C)CC[C@@]34C[C@@]35CC[C@H](O[C@@H]3OC[C@@H](O)[C@H](O)[C@H]3O)C(C)(C)[C@@H]5CC[C@H]4[C@]12C [Compound 4, beesioside M] | > 8.2 |  | 
CC(C)(O)[C@@H]1CC[C@@](C)([C@H]2[C@@H](O)[C@H](O)[C@@]3(C)[C@@H]4[C@@H](O)C[C@H]5C(C)(C)[C@@H](O[C@@H]6OC[C@@H](O)[C@H](O)[C@H]6O)CC[C@@]56C[C@@]46CC[C@]23C)O1 [Compound 5, soulieoside N] |  | inactive | 
CC(=O)O[C@H]1[C@@H]2O[C@@]3(C(C)(C)O)CC[C@](C)(O3)[C@@H]2[C@@]2(CO)CC[C@@]34C[C@@]35CC[C@H](O[C@@H]3OC[C@@H](O)[C@H](O)[C@H]3O)C(C)(C)[C@@H]5CC[C@H]4[C@]12C [Compound 9, (20S,24S)-15α-acetoxy-16β,24;20,24-diepoxy-3β-(β-D-xylopyranosyloxy)-9,19-cyclolanostane-18,25-diol] |  | inactive | 
CC(=O)O[C@H]1[C@H](O)[C@@]2(C)[C@@H]3CC[C@H]4C(C)(C)[C@@H](O[C@@H]5OC[C@@H](O)[C@H](O)[C@H]5O)CC[C@@]45C[C@@]35CC[C@@]23CO[C@@](C)(CCC(=O)C(C)(C)O)[C@@H]13 [Compound 11, soulieoside O] |  | inactive | 
CC(=O)O[C@H]1[C@@H](OC(C)=O)[C@@]2(C)[C@@H]3CC[C@H]4C(C)(C)[C@@H](O[C@@H]5OC[C@@H](O)[C@H](O)[C@H]5O)CC[C@@]45C[C@@]35CC[C@@]23CO[C@@](C)(CCC(=O)C(C)(C)O)[C@@H]13 [Compound 12, soulieoside P] |  | inactive | 
CC(=O)O[C@H]1[C@@H](OC(C)=O)[C@@]2(C)[C@@H]3CC[C@H]4C(C)(C)[C@@H](O)CC[C@@]45C[C@@]35CC[C@@]23CO[C@@]2(C(C)(C)O)CC[C@](C)(O2)[C@@H]13 [Compound 13, (20S,24S)-15β, 16β-Diacetoxy-18,24;20,24-diepoxy-9,19-cyclolanostane-3β,25-diol] |  | inactive | 
CC(=O)O[C@H]1[C@@H](OC(C)=O)[C@@]2(C)[C@@H]3CC[C@H]4C(C)(C)[C@@H](OC(C)=O)CC[C@@]45C[C@@]35CC[C@@]23CO[C@@]2(C(C)(C)O)CC[C@](C)(O2)[C@@H]13 [Compound 13a, (20S, 24S)-15β, 16β-Diacetoxy-18,24;20,24-diepoxy-9,19-cyclolanostane-25-hydroxy-3β-yl acetate] | > 16.4 |  | 
CC1(C)[C@@H](O)CC[C@]23C[C@]24CC[C@]25CO[C@@]6(C(C)(C)O)CC[C@](C)(O6)[C@H]2[C@@H](O)[C@@H](O)[C@@]5(C)[C@@H]4CC[C@@H]13 [Compound 13d, (20S, 24S)-18,24;20,24-Diepoxy-9,19-cyclolanostane-3β, 15β, 16β, 25-tetraol] |  | inactive | 
CC(=O)O[C@H]1[C@@H](OC(C)=O)[C@@]2(C)[C@@H]3CC[C@H]4C(C)(C)[C@@H](OC(=O)CCC(=O)O)CC[C@@]45C[C@@]35CC[C@@]23CO[C@@]2(C(C)(C)O)CC[C@](C)(O2)[C@@H]13 [Compound 13e, (20S,24S)-15β,16β-Diacetoxy-18,24;20,24-diepoxy-9,19-cyclolanostane-3β,25-diol 3-O-succinate] | > 5.2 |  | 
CC(=O)O[C@H]1[C@@H](OC(C)=O)[C@@]2(C)[C@@H]3CC[C@H]4C(C)(C)[C@@H](OC(=O)CC(C)C(=O)O)CC[C@@]45C[C@@]35CC[C@@]23CO[C@@]2(C(C)(C)O)CC[C@](C)(O2)[C@@H]13 (stereo partly drawn) [Compound 13f, (RS-3′-20S, 24S)-15β,16β-Diacetoxy-18,24;20,24-diepoxy-9,19-cyclolanostane-3β, 25-diol 3-O-3′-methylsuccinate] | > 18.0 |  | 
CC(=O)O[C@H]1[C@@H](OC(C)=O)[C@@]2(C)[C@@H]3CC[C@H]4C(C)(C)[C@@H](OC(=O)CC(C)(C)C(=O)O)CC[C@@]45C[C@@]35CC[C@@]23CO[C@@]2(C(C)(C)O)CC[C@](C)(O2)[C@@H]13 [Compound 13g, (20S, 24S)-15β,16β-Diacetoxy-18,24;20,24-diepoxy-9,19-cyclolanostane-3β, 25-diol 3-O-3′,3′-dimethylsuccinate] |  |  | fold more potent than 1 (anti-HIV activity) ([1]; relative to compound 1): approximately 100 fold; activity against bevirimat-resistant HIV viruses NL4-3-V370A [2]: no significant effects
CC(=O)O[C@H]1[C@@H](OC(C)=O)[C@@]2(C)[C@@H]3CC[C@H]4C(C)(C)[C@@H](OC(=O)CCC(C)(C)C(=O)O)CC[C@@]45C[C@@]35CC[C@@]23CO[C@@]2(C(C)(C)O)CC[C@](C)(O2)[C@@H]13 [Compound 13j, (20S, 24S)-15β,16β-Diacetoxy-18,24;20,24-diepoxy-9,19-cyclolanostane-3β, 25-diol 3-O-4',4'-dimethylglutarate] | > 104 |  | 
CC(=O)O[C@H]1[C@@H](OC(C)=O)[C@@]2(C)[C@@H]3CC[C@H]4C(C)(C)[C@@H](OC(=O)CC5(CC(=O)O)CCCC5)CC[C@@]45C[C@@]35CC[C@@]23CO[C@@]2(C(C)(C)O)CC[C@](C)(O2)[C@@H]13 [Compound 13l, (20S,24S)-15β,16β-Diacetoxy-18,24;20,24-diepoxy-9,19-cyclolanostane-3β,25-diol 3-O-3′,3′-tetramethyleneglutarate] | > 12.6 |  | 
CC(=O)O[C@H]1[C@@H](OC(C)=O)[C@@]2(C)[C@@H]3CC[C@H]4C(C)(C)[C@@H](OC(=O)COCC(=O)O)CC[C@@]45C[C@@]35CC[C@@]23CO[C@@]2(C(C)(C)O)CC[C@](C)(O2)[C@@H]13 [Compound 13m, (20S,24S)-15β, 16β-Diacetoxy-18,24;20,24-diepoxy-9,19-cyclolanostane-3β,25-diol 3-O-diglycolate] | > 41.7 |  | 
